Key:
[1] = test system: HeLa cells; experiment: Cytotoxicity, MTT test; type: cell-based
Description: The toxic effect of the substances was investigated using the MTT test. To this end, HeLa cells were seeded at a density of 2×10^4 cells per cavity of a 96-well titer plate and cultured for two days. Liposomes of varying composition (see Table) were added to the cells at a concentration of 0.5 mM and incubated with these cells for 24 hours. Subsequently, the MTT test was performed.

[2] = Chelating of metal ions (zeta potential of liposomes); type: physicochemical; conditions: compound in the liposome membrane
Description: Liposomes are produced as in Example 4. 40 μl of these liposomes are suspended in 7 ml of buffer (10 mM potassium acetate, 10 mM HEPES, pH 4.2 or pH 7.5). Subsequently, the metal ions are added with the concentrations as indicated, and the zeta potential of the liposomes is measured.

| Compound | toxic effect in the MTT test (in words) [1] | chelating of metal ions by liposomes including the compound (in words) [2] |
| --- | --- | --- |
| CCCCCCCC/C=C\CCCCCCCC(=O)OCC(C[N+](C)(C)C)OC(=O)CCCCCCC/C=C\CCCCCCCC (stereo not shown) [DOTAP] | significant cytotoxic effect |  |
| CC(C)CCC[C@@H](C)[C@H]1CC[C@H]2[C@@H]3CC=C4C[C@@H](OC(=O)NCCN(C)C)CC[C@]4(C)[C@H]3CC[C@]12C [DC-Chol, N,N-Dimethyl (2-aminoethyl) carbamoylcholesterol] | significant cytotoxic effect |  |
| Histaminylethaneamine-cholesterol hemisuccinate [His-Chol] | lesser toxic effects | capable of chelating metal ions |

From patent US7312206B2, “Sterol derivatives, liposomes comprising sterol derivatives and method for loading liposomes with active substances” (Novosom AG, priority 2001, dated 2007)
